The supplement of paper PMC12513837
± gives the standard deviation of the averaged measurements.

Compound: CC(=O)N1CCc2c(c(N3CCCc4cc(-c5cnn(C)c5)c(C(F)F)cc43)nn2C2CCC(CN3CCN(c4ccc5c(c4)C(=O)N(C4CCC(=O)NC4=O)C5=O)CC3)CC2)C1 [CBPD-409]
Assay: AUC of viability dose-response curve (relative to vehicle, 8 doses up to 10 µM) (fraction); higher = less sensitive (more viable); extreme values may be limits of the assay
Method: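 PRISM multiplexed pooled barcoded cell line viability screen at the Broad Institute, 887 cancer cell lines treated with CBPD-409 (p300/CBP PROTAC degrader) at 8 concentrations in threefold dilution, top dose 10 µM. The read-out is the area under the dose-response curve of relative viability versus vehicle (n=3). AUC < 0.3 is called strongly sensitive and AUC > 0.8 resistant.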

Test System | AUC of viability dose-response curve
MOLT3_HAEMATOPOIETIC_AND_LYMPHOID_TISSUE | 1
MOLT13_HAEMATOPOIETIC_AND_LYMPHOID_TISSUE | 1
MOLT16_HAEMATOPOIETIC_AND_LYMPHOID_TISSUE | 0.445
MONOMAC1_HAEMATOPOIETIC_AND_LYMPHOID_TISSUE | 1
MONOMAC6_HAEMATOPOIETIC_AND_LYMPHOID_TISSUE | 0.577
MON_SOFT_TISSUE | 0.486
MP41_UVEA | 0.212
MPP89_PLEURA | 1
MS751_CERVIX | 0.923
MSTO211H_PLEURA | 0.672
NALM6_HAEMATOPOIETIC_AND_LYMPHOID_TISSUE | 0.331
NB1_AUTONOMIC_GANGLIA | 0.112 ± 0.083
NB4_HAEMATOPOIETIC_AND_LYMPHOID_TISSUE | 0.277
NCIH23_LUNG | 0.771
NCIH28_PLEURA | 1
NCIH82_LUNG | 1
NCIH157DM_LUNG | 0.559
NCIH196_LUNG | 0.755
NCIH226_LUNG | 0.519
NCIH292_LUNG | 0.831
NCIH322_LUNG | 0.574
NCIH358_LUNG | 1
NCIH441_LUNG | 0.558
NCIH446_LUNG | 0.445
NCIH460_LUNG | 1

Test System | AUC of viability dose-response curve
NCIH520_LUNG | 0.861
NCIH522_LUNG | 0.942
NCIH524_LUNG | 1
NCIH596_LUNG | 1
NCIH647_LUNG | 1
NCIH650_LUNG | 0.606
NCIH661_LUNG | 0.567
NCIH727_LUNG | 0.875
NCIH747_LARGE_INTESTINE | 1
NCIH838_LUNG | 0.893
NCIH841_LUNG | 0.855
NCIH1048_LUNG | 0.878
NCIH1092_LUNG | 1
NCIH1299_LUNG | 0.79
NCIH1341_LUNG | 1
NCIH1355_LUNG | 1
NCIH1373_LUNG | 1
NCIH1435_LUNG | 1
NCIH1437_LUNG | 0.895
NCIH1563_LUNG | 0.445
NCIH1568_LUNG | 0.958
NCIH1573_LUNG | 0.699
NCIH1581_LUNG | 0.347
NCIH1623_LUNG | 0.92
NCIH1648_LUNG | 0.448

Test System | AUC of viability dose-response curve
NCIH1650_LUNG | 0.583
NCIH1651_LUNG | 1
NCIH1693_LUNG | 0.949
NCIH1703_LUNG | 0.78
NCIH1792_LUNG | 0.59
NCIH1793_LUNG | 0.838
NCIH1838_LUNG | 0.758
NCIH1876_LUNG | 1
NCIH1915_LUNG | 0.697
NCIH1944_LUNG | 1
NCIH1975_LUNG | 0.862
NCIH2004RT_SOFT_TISSUE | 1
NCIH2009_LUNG | 0.596
NCIH2023_LUNG | 1
NCIH2030_LUNG | 1
NCIH2052_PLEURA | 0.444
NCIH2087_LUNG | 0.834
NCIH2110_LUNG | 0.703
NCIH2122_LUNG | 0.654
NCIH2126_LUNG | 1
NCIH2170_LUNG | 1
NCIH2171_LUNG | 1
NCIH2172_LUNG | 0.62
NCIH2196_LUNG | 1
NCIH2228_LUNG | 0.91

Test System | AUC of viability dose-response curve
NCIH2347_LUNG | 0.648
NCIH2444_LUNG | 1
NCIH2452_PLEURA | 1
NCO2_HAEMATOPOIETIC_AND_LYMPHOID_TISSUE | 0.243
NIHOVCAR3_OVARY | 1
NOMO1_HAEMATOPOIETIC_AND_LYMPHOID_TISSUE | 0.279
NOZ_LIVER | 1
NP2_CENTRAL_NERVOUS_SYSTEM | 0.868
NP3_CENTRAL_NERVOUS_SYSTEM | 0.802
NP5_CENTRAL_NERVOUS_SYSTEM | 0.488
NUDHL1_HAEMATOPOIETIC_AND_LYMPHOID_TISSUE | 0.67
NUGC3_STOMACH | 1
NUGC4_STOMACH | 0.344
NZOV9_OVARY | 1
OACM51_OESOPHAGUS | 1
OAW42_OVARY | 0.814
OC314_OVARY | 0.619
OC316_OVARY | 0.486
OCIAML2_HAEMATOPOIETIC_AND_LYMPHOID_TISSUE | 0.551
OCIAML5_HAEMATOPOIETIC_AND_LYMPHOID_TISSUE | 0.461
OCIC4P_OVARY | 0.99
OCIC5X_OVARY | 0.69
OCILY3_HAEMATOPOIETIC_AND_LYMPHOID_TISSUE | 0.617
OCILY18_HAEMATOPOIETIC_AND_LYMPHOID_TISSUE | 0.451
OCILY19_HAEMATOPOIETIC_AND_LYMPHOID_TISSUE | 0.725

Test System | AUC of viability dose-response curve
OCILY132_HAEMATOPOIETIC_AND_LYMPHOID_TISSUE | 1
OCIM1_HAEMATOPOIETIC_AND_LYMPHOID_TISSUE | 0.286
OCIP5X_OVARY | 1
OCUG1_BILIARY_TRACT | 1
OE19_OESOPHAGUS | 0.884
OE21_OESOPHAGUS | 1
OE33_OESOPHAGUS | 0.776
ONCODG1_OVARY | 1
ONDA9_CENTRAL_NERVOUS_SYSTEM | 1
ONS76_CENTRAL_NERVOUS_SYSTEM | 0.922 ± 0.11
OSC20_UPPER_AERODIGESTIVE_TRACT | 0.936
OSRC2_KIDNEY | 1
OV7_OVARY | 1
OV17R_OVARY | 0.712
OV56_OVARY | 1
OVCAR8_OVARY | 0.486
OVISE_OVARY | 1
OVK18_OVARY | 0.365
OVKATE_OVARY | 1
OVTOKO_OVARY | 0.781
OZ_BILIARY_TRACT | 0.851
P12ICHIKAWA_HAEMATOPOIETIC_AND_LYMPHOID_TISSUE | 0.739
PA1_OVARY | 1
